According to ChEMBL document CHEMBL2375280, “Synthesis of novel 1,3,4-trisubstituted pyrazoles as anti-inflammatory and analgesic agents” (Eur J Med Chem, 2013):

Columns and labels:
Rattus norvegicus [1] = assay: Antiinflammatory activity in Wistar albino rat assessed as inhibition of carrageenan-induced paw edema at 0.32 mmol/kg, ip administered 1 hr prior to carrageenan challenge measured at 2 hrs by plethysmometric analysis relative to control; format: functional
Rattus norvegicus [2] = assay: Antiinflammatory activity in Wistar albino rat assessed as inhibition of carrageenan-induced paw edema at 0.32 mmol/kg, ip administered 1 hr prior to carrageenan challenge measured at 3 hrs by plethysmometric analysis relative to control; format: functional
Mus musculus = assay: Analgesic activity in albino mouse assessed as protection against p-benzoquinone-induced writhing at 0.32 mmol/kg, ip administered 1 hr prior to p-benzoquinone challenge measured for 30 mins relative to control; format: functional
[3] = Acute toxicity in ip dosed mouse assessed as mortality measured for 24 hrs; format: organism-based; conditions: in vivo
Rattus norvegicus [4] = assay: Antiinflammatory activity in Wistar albino rat assessed as inhibition of carrageenan-induced paw edema at 0.08 mmol/kg, ip administered 1 hr prior to carrageenan challenge measured at 3 hrs by plethysmometric analysis relative to control; format: functional
Rattus norvegicus [5] = assay: Ulcerogenic effect in albino rat stomach assessed as ulcer index at 0.32 mmol/kg, po administered for 3 days measured 2 hrs post last dose; format: toxicity, organism-based; conditions: in vivo
Homo sapiens = species: Homo sapiens; assay: Selectivity ratio for COX1 (unknown origin) over COX2 (unknown origin)
Rattus norvegicus [6] = assay: Antiinflammatory activity in ip dosed Wistar albino rat assessed as inhibition of carrageenan-induced paw edema administered 1 hr prior to carrageenan challenge measured at 3 hrs by plethysmometric analysis; format: functional, organism-based
Rattus norvegicus [7] = assay: Antiinflammatory activity in Wistar albino rat assessed as inhibition of carrageenan-induced paw edema at 0.16 mmol/kg, ip administered 1 hr prior to carrageenan challenge measured at 3 hrs by plethysmometric analysis relative to control; format: functional

| SMILES | inhibition in vivo at 320 µmol/kg (Rattus norvegicus [1]) [%] | inhibition in vivo at 320 µmol/kg (Rattus norvegicus [2]) [%] | Activity (Mus musculus) [%] | also measured |
| --- | --- | --- | --- | --- |
| COc1ccc(-c2nn(-c3ccc(S(N)(=O)=O)cc3)cc2/C=N\c2ccccc2)cc1 | 38.5 | 55.4 |  |  |
| Cc1ccc(-c2nn(-c3ccc(S(N)(=O)=O)cc3)cc2/C=C\C(=O)c2ccc(Cl)cc2)cc1 | 53.3 | 47.6 |  |  |
| COc1ccc(C(=O)C(CC(=O)c2ccc(Cl)cc2)c2cn(-c3ccc(S(N)(=O)=O)cc3)nc2-c2ccc(C)cc2)cc1 (centres undefined) | 53.8 | 61.1 | 50 |  |
| Cc1ccc(-c2nn(-c3ccc(Cl)cc3)cc2/C=C\C(=O)c2ccc(Cl)cc2)cc1 | 49.2 | 61.4 |  |  |
| COc1ccc(-c2nn(-c3ccc(Cl)cc3)cc2/C=N\c2ccccc2)cc1 | 57.2 | 72.6 | 16.67 |  |
| COc1ccc(-c2[nH]c(-c3ccc(Cl)cc3)cc2-c2cn(-c3ccc(S(N)(=O)=O)cc3)nc2-c2ccc(C)cc2)cc1 | 49.7 | 34.2 | 50 |  |
| Cc1ccc(-c2nn(-c3ccc(S(N)(=O)=O)cc3)cc2-c2cc(-c3ccc(Cl)cc3)[nH]c2-c2ccc(F)cc2)cc1 | 75.4 | 66.7 | 16.67 | LD50 at 24 h [3]: 3250 µmol/kg; inhibition in vivo at 80 µmol/kg (Rattus norvegicus [4]): 14%; UI (Rattus norvegicus [5]): 15; Selectivity ratio (Homo sapiens): 0.87; IC50 (Rattus norvegicus [6]): 0.21 mmol/kg; inhibition in vivo at 160 µmol/kg (Rattus norvegicus [7]): 43.6% |
| COc1ccc(/N=C\c2cn(-c3ccc(Cl)cc3)nc2-c2ccc(C)cc2)cc1 | 62 | 48.9 | 16.67 |  |
| COc1ccc(C(=O)C(CC(=O)c2ccc(Cl)cc2)c2cn(-c3ccc(Cl)cc3)nc2-c2ccc(C)cc2)cc1 (centres undefined) | 16.1 | 23.9 |  |  |
| Cc1ccc(-c2nn(-c3ccc(Cl)cc3)cc2C=O)cc1 | 49.9 | 56 |  |  |
| COc1ccc(-c2[nH]c(-c3ccc(Cl)cc3)cc2-c2cn(-c3ccc(Cl)cc3)nc2-c2ccc(C)cc2)cc1 | 9.38 | 21.3 |  |  |
| Cc1ccc(-c2nn(-c3ccc(Cl)cc3)cc2C(CC(=O)c2ccc(Cl)cc2)C(=O)c2ccc(F)cc2)cc1 (centres undefined) | 25.9 | 19.4 |  |  |
| Cc1ccc(-c2nn(-c3ccc(S(N)(=O)=O)cc3)cc2/C=N\c2ccc(Cl)cc2)cc1 | 69.1 | 78.4 | 33.33 | UI (Rattus norvegicus [5]): 5.8 |
| COc1ccc(-c2nn(-c3ccc(S(N)(=O)=O)cc3)cc2-c2cc(-c3ccc(Cl)cc3)[nH]c2-c2ccc(OC)cc2)cc1 | 48.1 | 28.6 |  |  |
| Cc1ccc(-c2nn(-c3ccc(S(N)(=O)=O)cc3)cc2C(CC(=O)c2ccc(Cl)cc2)C(=O)c2ccc(F)cc2)cc1 (centres undefined) | 53.5 | 56.2 | 50 |  |
| COc1ccc(C(=O)C(CC(=O)c2ccc(Cl)cc2)c2cn(-c3ccc(Cl)cc3)nc2-c2ccc(OC)cc2)cc1 (centres undefined) | 0 | 9.61 |  |  |
| COc1ccc(-c2nn(-c3ccc(S(N)(=O)=O)cc3)cc2/C=C\C(=O)c2ccc(Cl)cc2)cc1 | 55.6 | 56 |  |  |
| Cc1ccc(-c2nn(-c3ccc(S(N)(=O)=O)cc3)cc2C=O)cc1 | 58.4 | 68.2 | 16.67 | UI (Rattus norvegicus [5]): 9.6 |
| Cc1ccc(-c2nn(-c3ccc(Cl)cc3)cc2-c2cc(-c3ccc(Cl)cc3)[nH]c2-c2ccc(F)cc2)cc1 | 38.3 | 21 | 33.33 | UI (Rattus norvegicus [5]): 13 |

| SMILES | inhibition in vivo at 320 µmol/kg (Rattus norvegicus [1]) [%] | inhibition in vivo at 320 µmol/kg (Rattus norvegicus [2]) [%] | Activity (Mus musculus) [%] | also measured |
| --- | --- | --- | --- | --- |
| COc1ccc(-c2nn(-c3ccc(Cl)cc3)cc2C=O)cc1 | 63.1 | 57.6 | 33.33 |  |
| COc1ccc(/N=C\c2cn(-c3ccc(Cl)cc3)nc2-c2ccc(OC)cc2)cc1 | 69.2 | 82.2 | 66.67 | LD50 at 24 h [3]: 3250 µmol/kg; inhibition in vivo at 80 µmol/kg (Rattus norvegicus [4]): 37.5%; UI (Rattus norvegicus [5]): 14.32; Selectivity ratio (Homo sapiens): 1.17; IC50 (Rattus norvegicus [6]): 0.2 mmol/kg; inhibition in vivo at 160 µmol/kg (Rattus norvegicus [7]): 43% |
| COc1ccc(-c2nn(-c3ccc(Cl)cc3)cc2/C=N\c2ccc(Cl)cc2)cc1 | 69.6 | 72.6 | 33.33 | UI (Rattus norvegicus [5]): 5.4; Selectivity ratio (Homo sapiens): 0.95 |
| COc1ccc(-c2nn(-c3ccc(Cl)cc3)cc2C(CC(=O)c2ccc(Cl)cc2)C(=O)c2ccc(F)cc2)cc1 (centres undefined) | 19.8 | 37.8 |  |  |
| COc1ccc(/N=C\c2cn(-c3ccc(S(N)(=O)=O)cc3)nc2-c2ccc(C)cc2)cc1 | 48.8 | 56.2 |  |  |
| Cc1ccc(-c2nn(-c3ccc(Cl)cc3)cc2/C=N\c2ccc(Cl)cc2)cc1 | 48.3 | 49.2 |  |  |
| COc1ccc(-c2nn(-c3ccc(S(N)(=O)=O)cc3)cc2C(CC(=O)c2ccc(Cl)cc2)C(=O)c2ccc(F)cc2)cc1 (centres undefined) | 72.2 | 68.1 | 33.33 |  |
| COc1ccc(-c2nn(-c3ccc(S(N)(=O)=O)cc3)cc2/C=N\c2ccc(Cl)cc2)cc1 | 63 | 62.8 | 50 | LD50 at 24 h [3]: 2440 µmol/kg |
| COc1ccc(-c2nn(-c3ccc(S(N)(=O)=O)cc3)cc2C=O)cc1 | 83 | 81.5 | 16.67 | UI (Rattus norvegicus [5]): 11.2 |
| Cc1ccc(-c2nn(-c3ccc(Cl)cc3)cc2/C=N\c2ccccc2)cc1 | 40.1 | 49.3 |  |  |
| COc1ccc(-c2nn(-c3ccc(Cl)cc3)cc2-c2cc(-c3ccc(Cl)cc3)[nH]c2-c2ccc(F)cc2)cc1 | 53.7 | 61.9 | 33.33 | UI (Rattus norvegicus [5]): 12 |
| COc1ccc(C(=O)C(CC(=O)c2ccc(Cl)cc2)c2cn(-c3ccc(S(N)(=O)=O)cc3)nc2-c2ccc(OC)cc2)cc1 (centres undefined) | 30.8 | 22.5 |  |  |
| CCCCC1C(=O)N(c2ccccc2)N(c2ccccc2)C1=O [PHENYLBUTAZONE] | 57.3 | 70.5 | 33.33 | inhibition in vivo at 80 µmol/kg (Rattus norvegicus [4]): 20%; UI (Rattus norvegicus [5]): 30.2; IC50 (Rattus norvegicus [6]): 0.22 mmol/kg; inhibition in vivo at 160 µmol/kg (Rattus norvegicus [7]): 42.1% |
| Cc1ccc(-c2nn(-c3ccc(S(N)(=O)=O)cc3)cc2/C=N\c2ccccc2)cc1 | 58.1 | 57.1 |  |  |
| COc1ccc2c(c1)c(CC(=O)O)c(C)n2C(=O)c1ccc(Cl)cc1 |  |  |  | Selectivity ratio (Homo sapiens): 3.94 |
| COc1ccc(-c2nn(-c3ccc(Cl)cc3)cc2/C=C\C(=O)c2ccc(Cl)cc2)cc1 | 53.7 | 66.4 |  |  |
| COc1ccc(-c2nn(-c3ccc(S(N)(=O)=O)cc3)cc2-c2cc(-c3ccc(Cl)cc3)[nH]c2-c2ccc(F)cc2)cc1 | 55.7 | 55.9 |  |  |
| COc1ccc(/N=C\c2cn(-c3ccc(S(N)(=O)=O)cc3)nc2-c2ccc(OC)cc2)cc1 | 65.8 | 68.5 | 33.33 | LD50 at 24 h [3]: 3250 µmol/kg; UI (Rattus norvegicus [5]): 16.4 |
| COc1ccc(-c2nn(-c3ccc(Cl)cc3)cc2-c2cc(-c3ccc(Cl)cc3)[nH]c2-c2ccc(OC)cc2)cc1 | 10.5 | 20.7 |  |  |
